PMC5011342, “A high throughput drug screening assay to identify compounds that promote oligodendrocyte differentiation using acutely dissociated and purified oligodendrocyte precursor cells” (BMC Research Notes, 2016)
Like-named read-outs stand apart in the source and are kept apart here. Non-standard residues stand in square brackets, D forms with d. Residues, ends and D or L forms follow the SMILES beside them. pGlu = O=C1CC[C@@H](C(=O)O)N1; Thz = O=C(O)[C@@H]1CSCN1

Legend:
[1] = system: acutely dissociated and purified rat OPCs; assay: Acute OL differentiation assay (MBP expression/cell, immunofluorescent image quantification); format: cell-based; details: for activation at 0.4 µM: test compound at 0.4 uM, read-out: 0.4 uM (% Quet)
Summary of the method: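 This acute differentiation assay used purified rat OPCs from postnatal day 6–7 pups, seeded into PDL/laminin-coated 96-well plates in differentiation medium lacking PDGF and FGF. Compounds were applied in quadruplicate after a 1–2 h preincubation at 37 °C, 10 % CO2, with 0.1 % DMSO negative and 40 ng/ml T3 positive controls in eight wells. After fixation on DIV4, anti-MBP immunofluorescence images yielded MBP expression/cell.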

expanded OPCs = assay: cells; details: for viability at 0.1 µM / viability at 1 µM / viability at 10 µM: Rattus norvegicus, 72 h
Summary of the method: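 Toxicity screen: compounds added at 0.1, 1 and 10 µM to PDGF-AA-expanded OPCs in 96-well plates, 3-day incubation at 37 °C, 10% CO2, then alamarBlue 1:10 for 4 h with fluorescence readout. Results set screening doses of 10/2, 2/0.4 or 0.4/0.08 µM.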

[2] = Rattus norvegicus, 2 uM test compound, relative to quetiapine, sheet "All OLga data", read-out: OL differentiation, 2 uM (% Quet)
[3] = Rattus norvegicus, 10 uM test compound, relative to quetiapine, sheet "All OLga data", read-out: OL differentiation, 10 uM (% Quet)
[4] = read-out: 0.1 µM (% DMSO), alamarBlue viability of expanded OPCs, compound at 0.1 µM, sheet All Tox data
[5] = read-out: 1 µM (% DMSO), alamarBlue viability of expanded OPCs, compound at 1 µM, sheet All Tox data
[6] = read-out: 10 µM (% DMSO), alamarBlue viability of expanded OPCs, compound at 10 µM, sheet All Tox data
[7] = read-out: 0.1 µM (% DMSO), alamarBlue viability, NCC library compound at 0.1 µM, sheet "All Tox data"
[8] = read-out: 1 µM (% DMSO), alamarBlue viability, NCC library compound at 1 µM, sheet "All Tox data"
[9] = read-out: 10 µM (% DMSO), alamarBlue viability, NCC library compound at 10 µM, sheet "All Tox data"
[10] = Rattus norvegicus, test compound at 2 uM, NCC library screen, sheet "All OLga data", relative to quetiapine, read-out: 2 uM (% Quet)
[11] = Rattus norvegicus, test compound at 10 uM, NCC library screen, sheet "All OLga data", relative to quetiapine, read-out: 10 uM (% Quet)
[12] = alamarBlue viability of expanded OPCs, compound at 0.1 µM, relative to DMSO control
[13] = alamarBlue viability of expanded OPCs, compound at 1 µM, relative to DMSO control
[14] = alamarBlue viability of expanded OPCs, compound at 10 µM, relative to DMSO control
[15] = Rattus norvegicus, test compound at 2 uM, MBP expression relative to quetiapine, NCC library screen, sheet "All OLga data", read-out: 2 uM (% Quet)
[16] = Rattus norvegicus, test compound at 10 uM, MBP expression relative to quetiapine, NCC library screen, sheet "All OLga data", read-out: 10 uM (% Quet)
[17] = Rattus norvegicus, NCC library screen, sheet "All OLga data", relative to quetiapine

SMILES | activation at 2 µM [1, 2] [%] | activation at 10 µM [1, 3] [%] | viability at 0.1 µM (expanded OPCs; [4]) [%] | viability at 1 µM (expanded OPCs; [5]) [%] | viability at 10 µM (expanded OPCs; [6]) [%] | activation at 2 µM [1, 10] [%] | 0.1 µM (% DMSO) (expanded OPCs; [12]) | 1 µM (% DMSO) (expanded OPCs; [13]) | 10 µM (% DMSO) (expanded OPCs; [14]) | further results
NC1=NC(=O)C(c2ccccc2)O1 (centres unmarked) [Pemoline] | -15.2 | -10.6 | 96 | 104 | 101 |  |  |  |  | 
Nc1nc2c(ncn2CCC(CO)CO)c(=O)[nH]1 [Penciclovir] | -3.5 | 0.01 |  |  |  |  |  |  |  | viability at 0.1 µM (expanded OPCs; [7]): 100%; viability at 1 µM (expanded OPCs; [8]): 98%; viability at 10 µM (expanded OPCs; [9]): 90.7%
CC(C)(S)[C@@H](N)C(=O)O [Penicillamine] |  |  |  |  |  | -0.01 | 86.6 | 87.9 | 92.6 | activation at 10 µM [1, 11]: 6%
CC1(C)S[C@@H]2[C@H](NC(=O)Cc3ccccc3)C(=O)N2[C@H]1C(=O)O [Penicillin G] |  |  |  |  |  | -9.8 |  |  |  | activation at 10 µM [1, 11]: 1.4%; viability at 0.1 µM (expanded OPCs; [7]): 107%; viability at 1 µM (expanded OPCs; [8]): 102%; viability at 10 µM (expanded OPCs; [9]): 114%
CC1(C)S[C@@H]2[C@H](NC(=O)COc3ccccc3)C(=O)N2[C@H]1C(=O)O [Penicillin V] |  |  |  |  |  |  | 96.1 | 96.3 | 93.4 | activation at 2 µM [1, 15]: 14.6%; activation at 10 µM [1, 16]: 6.4%
CC(=O)CCCCn1c(=O)c2c(ncn2C)n(C)c1=O [Pentoxifylline] | 12.2 | -23.3 | 107 | 101 | 98 | 16.8 |  |  |  | activation at 10 µM [1, 11]: 7.2%; viability at 0.1 µM (expanded OPCs; [7]): 92.8%; viability at 1 µM (expanded OPCs; [8]): 93.6%; viability at 10 µM (expanded OPCs; [9]): 94.9%
CCCN1C[C@H](CSC)C[C@@H]2c3cccc4[nH]cc(c34)C[C@H]21 [Pergolide] |  |  |  |  |  | -15.7 |  |  |  | activation at 0.4 µM [1, 17]: -8.9%; viability at 0.1 µM (expanded OPCs; [7]): 100%; viability at 1 µM (expanded OPCs; [8]): 83.6%; viability at 10 µM (expanded OPCs; [9]): 41%
O=C1[C@H]2CCCC[C@H]2C(=O)N1CCCCN1CCN(c2nsc3ccccc23)CC1 [Perospirone, reference compound] | 84.5 | 18.7 | 110 | 164 | 132 |  |  |  |  | EC50 ([1]; Rattus norvegicus, average EC50 for induction of OL differentiation from independent biological replicates, eight concentrations): 0.1 µM; hit in OL differentiation assay, MRF-TMC ([1]; ● = confirmed hit in this paper's assay): ●
NNCCc1ccccc1 [Phenelzine] | 18 | 18.6 | 78.4 | 80.2 | 93.1 |  | 94.0 | 95.0 | 87.1 | activation at 2 µM [1, 15]: 3.7%; activation at 10 µM [1, 16]: -4.2%
c1ccc2c(c1)Nc1ccccc1S2 [Phenothiazine] |  |  |  |  |  | -12.1 |  |  |  | activation at 0.4 µM [1, 17]: 4%; viability at 0.1 µM (expanded OPCs; [7]): 82.8%; viability at 1 µM (expanded OPCs; [8]): 85.1%; viability at 10 µM (expanded OPCs; [9]): 51.9%
CC(COc1ccccc1)N(CCCl)Cc1ccccc1 (centres unmarked) [Phenoxybenzamine] |  |  |  |  |  | -11 | 109.6 | 116.7 | 142.4 | activation at 10 µM [1, 11]: 35.4%
NC(=O)OCCCc1ccccc1 [Phenprobamate] | 26.9 | 12.1 | 96 | 95.1 | 92.7 |  |  |  |  | 
Cc1ccc(N(CC2=NCCN2)c2cccc(O)c2)cc1 [Phentolamine] |  |  |  |  |  |  | 93.8 | 88.6 | 62.0 | activation at 2 µM [1, 15]: -17.9%; activation at 10 µM [1, 16]: -82.7%
O=C1NC(=O)C(c2ccccc2)(c2ccccc2)N1 [Phenytoin] |  |  |  |  |  |  | 88.8 | 86.9 | 83.9 | activation at 2 µM [1, 15]: -25.2%; activation at 10 µM [1, 16]: -26.2%
CC1=C(C/C=C(\C)CCC[C@H](C)CCC[C@H](C)CCCC(C)C)C(=O)c2ccccc2C1=O [Phylloquinone] |  |  |  |  |  |  |  |  |  | 2 uM (% Quet) ([1]; test compound at 2 uM, NCC library screen, sheet "All OLga data", relative to quetiapine): 17.4 % Quet; 10 uM (% Quet) ([1]; test compound at 10 uM, NCC library screen, sheet "All OLga data", relative to quetiapine): -25.4 % Quet; 0.1 µM (% DMSO) (expanded OPCs): 96.6 % DMSO; 1 µM (% DMSO) (expanded OPCs): 89.8 % DMSO; 10 µM (% DMSO) (expanded OPCs): 87.4 % DMSO
CNC(=O)Oc1ccc2c(c1)[C@]1(C)CCN(C)[C@@H]1N2C [Physostigmine] | -4.5 | 0.12 | 105 | 96.7 | 78 |  |  |  |  | 
CC(C)(O)[C@@H]1[C@H]2OC(=O)[C@@H]1[C@]1(O)C[C@H]3O[C@]34C(=O)O[C@H]2[C@]14C [Picrotin] | 6.5 | 5.9 | 84.8 | 84.6 | 85.6 |  |  |  |  | 
O=C1CC[C@@H](C(=O)N2CSC[C@H]2C(=O)O)N1 [Pidotimod] ([pGlu]-[Thz]-OH) | 7.5 | -1.8 | 96.9 | 105 | 104 |  |  |  |  | 
CC[C@@H]1C(=O)OC[C@@H]1Cc1cncn1C [Pilocarpine] | 0.3 | 6.6 | 90.2 | 101 | 90.1 |  |  |  |  | 
CC(N/C(=N\C#N)Nc1ccncc1)C(C)(C)C (centres unmarked) [Pinacidil] |  |  |  |  |  | -0.57 |  |  |  | activation at 10 µM [1, 11]: 26.1%; viability at 0.1 µM (expanded OPCs; [7]): 90.8%; viability at 1 µM (expanded OPCs; [8]): 98.8%; viability at 10 µM (expanded OPCs; [9]): 93.6%
CC(C)NCC(O)COc1cccc2[nH]ccc12 (centres unmarked) [Pindolol] |  |  |  |  |  | -2.9 | 88.9 | 89.4 | 86.5 | activation at 10 µM [1, 11]: -35.6%
CCc1ccc(CCOc2ccc(CC3SC(=O)NC3=O)cc2)nc1 (centres unmarked) [Pioglitazone] | 13.3 | 55.6 | 96.9 | 120 | 164 |  |  |  |  | 
